Article PMC5755735, “Discovery of indolylpiperazinylpyrimidines with dual-target profiles at adenosine A2A and dopamine D2 receptors for Parkinson's disease treatment” (PLoS ONE, 2018)
Read-outs that look alike come from different tables or passages of the source.

Tests used:
[1] = aqueous solubility; format: physicochemical; details: universal aqueous buffer, 22.5 °C, pH 7.4, aqueous buffer, kinetic from dmso stock
Experimental: The 10 μL stock solution of the ligand (10 mM in DMSO) was added to the universal aqueous buffer (pH 7.4), and the mixture was sonicated. 300 μL of the turbid mixture was transferred to the 3 wells of MultiScreen HTS- PCF filter plate (Millipore Corp., Ireland), and the plate was covered and incubated with gentle shaking (250 rpm, 3 h) at room temperature (22.5 ± 2.5°C). After the period of incubation (3 h), the filter plate was placed on a vacuum manifold and the contents were filtered into a 96-well UV plate. After filtration, 200 μL of filtrate was transferred from each well to the PP vial. Absorbances of the solutions were quantified by HPLC-UV and read at 250 nm.

[2] = biological target: T1, human A1 receptors expressed in CHO cells (Homo sapiens, UniProt P30542); experiment: competition binding at human A1 adenosine receptors ([3H]CCPA displacement); details: displacement of [3H]CCPA, 95% confidence limits, n = 3–6, read-out: Ki hA1
T1 sequence (P30542 1-326): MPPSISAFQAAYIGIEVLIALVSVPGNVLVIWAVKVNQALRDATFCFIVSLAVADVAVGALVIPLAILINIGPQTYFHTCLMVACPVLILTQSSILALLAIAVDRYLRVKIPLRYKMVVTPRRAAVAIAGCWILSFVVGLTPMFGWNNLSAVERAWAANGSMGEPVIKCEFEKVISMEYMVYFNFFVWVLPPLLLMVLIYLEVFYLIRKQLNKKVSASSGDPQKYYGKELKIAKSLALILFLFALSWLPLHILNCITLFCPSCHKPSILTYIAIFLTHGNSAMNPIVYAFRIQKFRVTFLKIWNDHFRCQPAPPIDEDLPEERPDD
Experimental: A two-step procedure was adopted to prepare membrane for radioligand binding from cells stably transfected with human adenosine receptor subtypes (hA1, hA2A and hA3 expressed on CHO cells). Firstly, cell fragments and nuclei were removed by using low-speed centrifugation (1,000 g for 10 min). After that, crude membrane fraction from supernatant was then sedimented at 100,000 g for 30 min. The membrane pellet was subsequently re-suspended in the specific binding buffer, frozen in liquid nitrogen and stored at -80°C. For measurement of adenylyl cyclase activity in the hA2B receptors, one-step centrifugation procedure was used; the homogenate was sedimented for 30 min at 54,000 g. The so-obtained crude membrane pellet was re-suspended in 50 mM Tris/HCl, pH 7.4 and used for the adenylyl cyclase assay immediately.
Non-specific binding was determined using theophylline 1 mM. […] Non-specific binding was determined using N^6-R-phenylisopropyl adenosine (R-PIA) 100 μM. ^41 The binding of [^3H]HEMADO to CHO cells transfected with hA3 adenosine receptors was carried out as described earlier. […] Non-specific binding was determined using R-PIA 100 μM.
The assay mixture was then filtered through the built-in filter at the bottom of the 96-well microplate filtration system (Millipore Multiscreen MAFC) and washed three times with 200 μL of cold buffer. After addition of 20 μL of scintillator to the dried filter plates, the filter bound radioactivity was counted on a Wallac Micro-Beta counter. All Ki values were calculated by non-linear curve fitting with the program SCTFIT [45].

[3] = test system: Salmonella strains TA98 and TA100; experiment: Ames mutagenicity test; format: cell-based, Salmonella typhimurium; details: 10 μM and 100 μM; TA98 and TA100, +S9 and –S9
Experimental: In the toxicity studies, in vitro assays for mutagenicity and cytotoxicity were performed on compounds 5 and 6. These compounds were investigated for their mutagenic potential through the Ames assay. Two Salmonella strains TA98 and TA100 with pre-existing mutations (His^-) were selected. Both strains are unable to synthesize histidine (one of the growth requirements for these strains) and therefore cannot form colonies on the agar plate.
Together with the compounds, the Salmonella strains were incubated in the presence (+S9) and absence (–S9) of a metabolizing system “S9 mix” consisting of 9000 g supernatant fraction of rat liver microsomes, nicotinamide adenine dinucleotide phosphate (NADP) and cofactors. Exogenous “S9 mix” was included due to the lack of CYP metabolizing enzymes in Salmonella typhimurium. In the assay, agar plates +S9 and–S9 were used to detect pro-mutagens for cases where the native chemical was not mutagenic but its metabolites were mutagens, and direct-acting mutagens, respectively. […]
In vitro mutagenicity was performed using a modified Ames Test protocol according to manufacturer’s instructions (MolTox). […] The cultures were then measured for absorbance with a UV spectrophotometer at 660 nm and to be used at a density of approximately 1.0 to 1.2 absorbance units. […] Images of colonies were captured and counted with the aid of ImageJ software.

Row | Compound | solubility at 3 h ([1]; ambient temperature, pH 7.4, guideline of Kerns et al. [40], read-out: aqueous solubility class) | solubility at 3 h ([1]; pH 7.4, 3 h, room temperature, read-out: Solubility (μM), 3 h) | solubility at 3 h ([1]; pH 7.4, 3 h, room temperature, read-out: Solubility (μg/mL), 3 h) | Ki [2] | mutagenicity (number of His+ revertants) [3]
1 | Cc1cc(C)nc(N2CCN(C(=O)c3c[nH]c4ccccc34)CC2)n1 [Compound 5, 3‐[4‐(4,6‐Dimethylpyrimidin‐2‐yl)piperazine‐1‐carbonyl]‐1H‐indole] | < 10 µg/mL | 27 ± 0.32 µM | 9.07 ± 0.11 µg/mL | > 100 µM | no significant mutagenicity
2 | Cc1cc(C)nc(N2CCN(C(=O)Cc3c(C)[nH]c4ccccc34)CC2)n1 [Compound 6, 1‐[4‐(4,6‐Dimethylpyrimidin‐2‐yl)piperazin‐1‐yl]‐2‐(2‐methyl‐1H‐indol‐3‐yl)ethan‐1‐one] | – | – | – | > 100 µM | no significant mutagenicity
